A word on the IC50: it is the midpoint of a concentration-inhibition curve. A lower IC50 goes with higher potency.

Counter-ions that a name gives are not always drawn.

PDE10A (Homo sapiens, UniProt Q9Y233), sequence (Q9Y233 whole entry, looked up): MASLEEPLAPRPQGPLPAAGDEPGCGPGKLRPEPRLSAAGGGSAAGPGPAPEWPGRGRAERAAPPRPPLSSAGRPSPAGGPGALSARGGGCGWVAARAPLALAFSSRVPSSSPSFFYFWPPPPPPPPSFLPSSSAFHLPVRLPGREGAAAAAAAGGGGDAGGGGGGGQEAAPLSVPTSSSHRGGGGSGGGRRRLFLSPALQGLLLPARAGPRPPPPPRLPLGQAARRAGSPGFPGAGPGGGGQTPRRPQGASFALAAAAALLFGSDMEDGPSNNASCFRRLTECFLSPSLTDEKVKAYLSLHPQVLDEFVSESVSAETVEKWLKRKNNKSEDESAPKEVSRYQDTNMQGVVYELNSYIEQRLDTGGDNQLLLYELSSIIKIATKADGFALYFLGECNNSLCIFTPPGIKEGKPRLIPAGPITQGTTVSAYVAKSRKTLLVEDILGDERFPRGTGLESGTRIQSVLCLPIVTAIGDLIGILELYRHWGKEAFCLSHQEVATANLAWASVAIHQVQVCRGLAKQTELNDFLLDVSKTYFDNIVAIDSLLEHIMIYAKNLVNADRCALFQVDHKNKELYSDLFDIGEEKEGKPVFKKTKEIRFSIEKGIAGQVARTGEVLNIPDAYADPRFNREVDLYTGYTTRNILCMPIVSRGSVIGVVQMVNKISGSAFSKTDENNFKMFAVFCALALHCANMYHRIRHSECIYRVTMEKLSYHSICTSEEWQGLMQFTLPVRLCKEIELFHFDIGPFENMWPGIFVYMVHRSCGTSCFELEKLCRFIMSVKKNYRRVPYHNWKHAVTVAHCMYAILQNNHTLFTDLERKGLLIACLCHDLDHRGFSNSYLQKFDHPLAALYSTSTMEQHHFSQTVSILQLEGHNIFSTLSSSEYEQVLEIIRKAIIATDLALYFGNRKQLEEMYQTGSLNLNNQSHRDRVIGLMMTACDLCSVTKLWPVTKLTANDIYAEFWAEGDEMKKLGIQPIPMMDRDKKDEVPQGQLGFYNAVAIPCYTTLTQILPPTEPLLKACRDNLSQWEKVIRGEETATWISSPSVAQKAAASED

One assay deals with PDE10A (Homo sapiens, UniProt Q9Y233). The assay can be described thus: Phosphodiesterase assay (TR-FRET, LANCE cAMP kit). It counts as biochemical. Conditions: PDE10A (BPS Bioscience) 200 pg/well, biotin-cAMP substrate, 60 min at room temperature. Here is the method:
(§1) The PDE assay is based on the homogenous time-resolved fluorescence resonance energy transfer (TR-FRET) technology (LANCE® from Perkin Elmer). […] When there is PDE activity, resulting in the degradation of the cyclic nucleotide, the complex is not formed and a decrease in signal is observed.
(§2) The phosphodiesterase assay was developed using the LANCE® cAMP kit (PerkinElmer). The assay buffer contained HBSS with 5 mM HEPES, 0.1% BSA, and 1.5 mM MgCl2, pH 7.4. PDE10A (BPS Bioscience) was used at 200 pg/well (with a specific activity of 3200 pmole/min/μg with assay conditions: 10 mM Tris-HCl, pH7.4, 10 mM MgCl2, 1 mM MnCl2, 200 μM cAMP, 2.5 kU 5′ nucleotidase, 37° C., 20 min). […] Chemical compounds were dissolved in DMSO (final concentration 2% (v/v)).
(§3) In a 384-well plate, 2 μL inhibitor and 3 μL PDE were added to the well, followed by the addition of 5 μl substrate biotinylated cAMP (1:5). After 60 min incubation at room temperature, 10 μL of assay detection mixture was added to the assay plate. After 1 h at room temperature, the signal was measured on EnVision™ (Perkin Elmer).
Background: TR-FRET usually uses a lanthanide donor and a delayed reading to cut background.
In the case of `COc1ccc2nc(NCC(F)(F)F)c(Cc3c(O)nc(C(C)C)c4cc(OC)c(OC)cc34)cc2c1` [Compound 51, 1-isopropyl-6,7-dimethoxy-4-((6-methoxy-2-(2,2,2-trifluoroethylamino)quinolin-3-yl)methyl)isoquinolin-3-ol dihydrochloride], the IC50 was 0.055 µM. This counts as double-digit nanomolar. Still for that read-out and setting: as for `CCc1nc(O)c(Cc2cnc3cc(OC)ccc3c2)c2cc(OC)c(OC)cc12` [Compound 31, 1-ethyl-6,7-dimethoxy-4-((7-methoxyquinolin-3-yl)methyl)isoquinolin-3-ol dihydrochloride], the figure is 0.013 µM. The same measure, in the same setting: with `COc1ccc2cc(Cc3c(O)nc(C)c4cc(OC)c(OC)cc34)cnc2c1` [Compound 29, 6,7-Dimethoxy-4-((7-methoxyquinolin-3-yl)methyl)-1-methylisoquinolin-3-ol dihydrochloride] the figure was 0.029 µM; with `COc1cc2c(C)nc(O)c(Cc3ccc4cnccc4c3)c2cc1OC` [Compound 21, 4-(Isoquinolin-6-ylmethyl)-6,7-dimethoxy-1-methylisoquinolin-3-ol dihydrochloride], 0.333 µM. For `CCc1nc(O)c(Cc2cc3cc(OC)ccc3nc2NC(C)C)c2cc(OC)c(OC)cc12` [Compound 43, 1-Ethyl-4-((2-(isopropylamino)-6-methoxyquinolin-3-yl)methyl)-6,7-dimethoxyisoquinolin-3-ol dihydrochloride], the 50% inhibitory concentration (IC50) is 0.0035 µM. This IC50 is about 95-fold lower than that of the molecule before. Still for that read-out and setting: with `CCCc1nc(O)c(Cc2cc3cc(C)ccc3nc2N(C)C)c2cc(OC)c(OC)cc12` [Compound 36, 4-((2-(Dimethylamino)-6-methylquinolin-3-yl)methyl)-6,7-dimethoxy-1-propylisoquinolin-3-ol dihydrochloride] the figure was 0.698 µM; with `CCCc1nc(O)c(Cc2cc3cc(OCC)ccc3nc2NCC)c2cc(OC)c(OC)cc12` [Compound 49, 4-((6-ethoxy-2-(ethylamino)quinolin-3-yl)methyl)-6,7-dimethoxy-1-propylisoquinolin-3-ol dihydrochloride], 0.0046 µM. `CCc1nc(O)c(Cc2cc3cc(OC)ccc3nc2NCCOC)c2cc(OC)c(OC)cc12` [Compound 77, 1-Ethyl-6,7-dimethoxy-4-((6-methoxy-2-(2-methoxyethylamino)quinolin-3-yl)methyl)isoquinolin-3-ol dihydrochloride] returned an IC50 of 0.002 µM. Against the preceding molecule, the IC50 is about 2.3-fold lower.

As to `COc1cc2c(C)nc(O)c(Cc3cncc(-c4ccccc4)c3)c2cc1OC` [Compound 15, 6,7-Dimethoxy-1-methyl-4-((5-phenylpyridin-3-yl)methyl)isoquinolin-3-ol dihydrochloride], the half-maximal inhibitory concentration (IC50) was 0.097 µM.

`COc1cc2c(C)nc(O)c(Cc3cccc4cnccc34)c2cc1OC` [Compound 22, 4-(Isoquinolin-5-ylmethyl)-6,7-dimethoxy-1-methylisoquinolin-3-ol dihydrochloride] showed an IC50 of 0.333 µM. On the same count and under the same terms, as for `CCCNc1nc2ccc(OC)cc2cc1Cc1c(O)nc(CCC)c2cc(OC)c(OC)cc12` [Compound 52, 6,7-dimethoxy-4-((6-methoxy-2-(propylamino)quinolin-3-yl)methyl)-1-propylisoquinolin-3-ol dihydrochloride], the figure is 0.0015 µM; as for `CCCc1nc(O)c(Cc2cc3cc4c(cc3nc2NCC)OCO4)c2cc(OC)c(OC)cc12` [Compound 64, 4-((6-(ethylamino)-[1,3]dioxolo[4,5-g]quinolin-7-yl)methyl)-6,7-dimethoxy-1-propylisoquinolin-3-ol dihydrochloride], 0.0012 µM; as for `CCCc1nc(O)c(Cc2cc3cc(OC)ccc3nc2NCC)c2cc(OC)c(OC)cc12` [Compound 50, 4-((2-(ethylamino)-6-methoxyquinolin-3-yl)methyl)-6,7-dimethoxy-1-propylisoquinolin-3-ol dihydrochloride], 0.00028 µM.

`CCNc1nc2ccc(OC)cc2cc1Cc1c(O)nc(C(C)C)c2cc(OC)c(OC)cc12` [Compound 47, 4-((2-(ethylamino)-6-methoxyquinolin-3-yl)methyl)-1-isopropyl-6,7-dimethoxyisoquinolin-3-ol dihydrochloride] displayed a half-inhibitory concentration (IC50) of 0.011 µM. On the same count and under the same terms, with `COc1cc2c(C)nc(O)c(Cc3ccncc3)c2cc1OC` [Compound 11, 6,7-dimethoxy-1-methyl-4-(pyridin-4-ylmethyl)isoquinolin-3-ol hydrochloride] the figure was 0.223 µM; with `CCCc1nc(O)c(Cc2cc3cc(OCC)ccc3nc2NCCNC(C)=O)c2cc(OC)c(OC)cc12` [Compound 88, N-(2-((6-ethoxy-3-((3-hydroxy-6,7-dimethoxy-1-propylisoquinolin-4-yl)methyl)quinolin-2-yl)amino)ethyl)acetamide dihydrochloride], 0.0018 µM; with `COc1cc2c(C(C)C)nc(O)c(Cc3cnc4ccccc4c3)c2cc1OC` [Compound 79, 1-Isopropyl-6,7-dimethoxy-4-(quinolin-3-ylmethyl)isoquinolin-3-ol dihydrochloride], 0.088 µM. The same measure, in the same setting: as for `CCCNc1nc2ccc(OC)cc2cc1Cc1c(O)nc(C)c2cc(OC)c(OC)cc12` [Compound 38, 6,7-dimethoxy-4-((6-methoxy-2-(propylamino)quinolin-3-yl)methyl)-1-methylisoquinolin-3-ol dihydrochloride], the figure is 0.0027 µM; as for `CCOc1ccc2cc(Cc3c(O)nc(C)c4cc(OC)c(OC)cc34)cnc2c1` [Compound 30, 4-((7-ethoxyquinolin-3-yl)methyl)-6,7-dimethoxy-1-methylisoquinolin-3-ol dihydrochloride], 0.021 µM.

The next assay has as its target PDE10A. The experiment in a line: Phosphodiesterase assay (TR-FRET, LANCE cAMP kit). It counts as biochemical. Conditions: PDE10A (BPS Bioscience) 200 pg/well, biotin-cAMP substrate, 60 min at room temperature. Here is the method: as §1, §2, §3
`CCc1nc(O)c(Cc2ccc3oc4ccccc4c3c2)c2cc(OC)c(OC)cc12` [Compound 6, 4-(Dibenzo[b,d]furan-2-ylmethyl)-1-ethyl-6,7-dimethoxyisoquinolin-3-ol hydrochloride] showed a concentration for half-maximal inhibition (IC50) of 0.00012 µM.

In another assay the target is PDE4D3 (Homo sapiens (Human), UniProt Q08499). The assay can be described thus: PDE4D3 inhibition (selectivity testing). The class given is biochemical.
PDE4D3, sequence (Q08499 other isoform, or with tags, fused parts or gaps): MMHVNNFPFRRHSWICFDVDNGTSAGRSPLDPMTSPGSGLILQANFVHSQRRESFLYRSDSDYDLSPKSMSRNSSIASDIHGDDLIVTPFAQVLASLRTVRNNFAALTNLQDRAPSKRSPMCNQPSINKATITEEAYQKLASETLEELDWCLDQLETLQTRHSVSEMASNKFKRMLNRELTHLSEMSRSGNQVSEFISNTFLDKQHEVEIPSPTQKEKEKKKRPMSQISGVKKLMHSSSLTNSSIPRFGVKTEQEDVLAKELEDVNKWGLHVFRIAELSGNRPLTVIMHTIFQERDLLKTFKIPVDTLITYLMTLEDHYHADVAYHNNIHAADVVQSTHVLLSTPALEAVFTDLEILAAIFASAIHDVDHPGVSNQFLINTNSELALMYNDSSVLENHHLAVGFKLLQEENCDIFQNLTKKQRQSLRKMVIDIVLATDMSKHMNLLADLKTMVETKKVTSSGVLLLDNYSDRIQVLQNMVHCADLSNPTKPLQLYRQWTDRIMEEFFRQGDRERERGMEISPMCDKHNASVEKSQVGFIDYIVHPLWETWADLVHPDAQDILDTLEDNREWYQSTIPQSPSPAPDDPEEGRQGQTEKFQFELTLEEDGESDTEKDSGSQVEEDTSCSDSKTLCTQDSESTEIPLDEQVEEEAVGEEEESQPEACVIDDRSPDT
Conditions: not given
From the text: The compounds have also been tested for their activities on PDEs1-9 and PDE11.
The molecule `COc1ccc2nc(NCC(F)(F)F)c(Cc3c(O)nc(C(C)C)c4cc(OC)c(OC)cc34)cc2c1` [Compound 51, 1-isopropyl-6,7-dimethoxy-4-((6-methoxy-2-(2,2,2-trifluoroethylamino)quinolin-3-yl)methyl)isoquinolin-3-ol dihydrochloride] came in with an IC50 of 0.28 µM. Same read-out and setting: as for `CCc1nc(O)c(Cc2cnc3cc(OC)ccc3c2)c2cc(OC)c(OC)cc12` [Compound 31, 1-ethyl-6,7-dimethoxy-4-((7-methoxyquinolin-3-yl)methyl)isoquinolin-3-ol dihydrochloride], the figure is 0.082 µM.

`CCc1nc(O)c(Cc2ccc3oc4ccccc4c3c2)c2cc(OC)c(OC)cc12` [Compound 6, 4-(Dibenzo[b,d]furan-2-ylmethyl)-1-ethyl-6,7-dimethoxyisoquinolin-3-ol hydrochloride] displayed a concentration for half-maximal inhibition (IC50) of 0.0009 µM. This IC50 is about 91-fold lower than that of the molecule before.

The values are drawn from patent publication US8772316B2, “Substituted 6,7-dialkoxy-3-isoquinolinol derivatives as inhibitors of phosphodiesterase 10 (PDE10A)” (Allergan, Inc., priority 2011, dated 2014).
